Measured values published in US12329850B2, “Microalgae having high loliolide productivity” (KOREA RESEARCH INSTITUTE OF BIOSCIENCE AND BIOTECHNOLOGY, priority 2019, dated 2025).

What was measured:
Format in all cases: cell-based
[1] = tested on: human dermal fibroblasts irradiated with UVB; assay: WST-1 assay, cell viability recovery in UVB-irradiated human dermal fibroblasts; conditions: loliolide 2 μg/mL for 6 hours, then UVB 10 mJ/cm^2, 24 hours
Experimental: Human dermal fibroblasts cultured in the same manner as in Example 6 were dispensed in a 96-well plate by 4×10^3 cells/well, and loliolide was treated at concentrations of 2 μg/mL, 5 μg/mL, 10 μg/mL, and 20 μg/mL for 6 hours. Then, the medium was irradiated with UVB at 10 mJ/cm^2 and cultured further for 24 hours, and cell viability was measured by performing a WST-1 assay in the same manner as in Example 6.

MMP1 gene = assay: qRT-PCR, expression of collagenase gene in UVB-irradiated human dermal fibroblasts; conditions: 24 hours, UVB-only control 2.4-fold increase
Experimental: (§1) First, human dermal fibroblasts cultured in the same manner as in Example 6 were dispensed in a 96-well plate in an amount of 4×10^3 cells/well, and UVB was irradiated to the medium at 10 mJ/cm^2. […] Thereafter, the changes in expression levels of the ColA1 gene and the MMP1 gene were measured through quantitative real time-PCR (qRT-PCR). During this process, SYBR green I (Invitrogen), which is a fluorescent material, was used to examine the amount of the DNA product amplified by PCR in real time. Specifically, 0.2 μM of the primers prepared with the sequences shown in Table 3 below were added to a PCR tube, and mixed with 50 mM KCl, 20 mM Tris/HCl (pH 8.4), 0.8 mM dNTP, 0.5 U DNA polymerase (Extaq DNA polymerase), 3 mM MgCl2 and 1×SYBR Green I so as to prepare a reaction solution. Then, PCR was performed using a PCR device (Linegene K, BioER, China)(PCR conditions: primary denaturation for 3 minutes, denaturation at 94° C. for 30 seconds, annealing at 58° C. for 30 seconds, and polymerization at 72° C. for 30 seconds, a total of 40 cycles), and the fluorescence intensity was measured for each cycle.

[2] = tested on: human dermal fibroblasts (HDFs); assay: WST-1 assay, cytotoxicity of loliolide on human dermal fibroblasts; conditions: loliolide up to 20 μg/mL, 24 hours
Experimental: The purification of loliolide was performed in the same manner as in Example 3, and an extract was obtained using ethyl acetate from a lyophilized culture of the Scenedesmus sp. HS4 microalgae of the present invention, and loliolide was purified through fractionation/concentration. In the case of culturing human dermal cells, human dermal fibroblasts purchased from Lonza (Basel, Switzerland) were cultured in a 5% CO2 cell incubator at 37° C. using a medium in which 10% fetal bovine serum (FBS, 51480, Biowest, France) was further added to Dulbecco's modified Eagle's medium (DMEM medium, L0103-500, Biowest, France).
First, whether loliolide has cytotoxicity against human dermal fibroblasts was confirmed through WST-1 assay. After dispensing the cultured human dermal fibroblasts into a 96-well plate at 4×10^3 cells/well and culturing for 24 hours, the loliolide purified from Scenedesmus sp. HS4 microalgae was treated at concentrations of 0 μg/mL, 2 μg/mL, 5 μg/mL, 10 μg/mL, and 20 μg/mL, respectively. After 24 hours have elapsed after the loliolide treatment, the solution was treated in the medium using a WST-1 assay kit (EZ-cytox cell viability kit, Itshio, Korea), the absorbance was measured at a wavelength of 450 nm with a microplate reader (iMark microplate reader, Bio-Rad, USA).

ColA1 gene = assay: qRT-PCR, expression of collagen gene in UVB-irradiated human dermal fibroblasts; conditions: 24 hours, UVB-only control 30%
Experimental: as §1

[3] = UVB 10 mJ/cm^2, then loliolide 5 μg/mL
[4] = UVB 10 mJ/cm^2, then loliolide 10 μg/mL

## CC1(C)C[C@H](O)C[C@@]2(C)OC(=O)C=C12 [loliolide]
[1]
  cell viability compared to the UVB control group: significantly increased
MMP1 gene; [3]
  expression level of MMP1 gene: 25%
MMP1 gene; [4]
  expression level of MMP1 gene: 46%
[2]
  toxicity to human dermal fibroblasts (relative viability vs untreated control): not toxic
ColA1 gene; [3]
  expression level of ColA1 gene, based on cells without any treatment: 55%
ColA1 gene; [4]
  expression level of ColA1 gene, based on cells without any treatment: 65%
